Measurements: patent US20250179059A1 (The Regents of the University of California, priority 2021, published 2025)
Like-named read-outs stand apart in the source and are kept apart here.

Key:
[1] = system: human SKM-1 acute myeloid leukemia cells; experiment: SKM-1 antiproliferation cell-based assay (ATPlite); settings: Homo sapiens
Outline: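 Log-phase cells in RPMI 1640/15% FBS were seeded at 34722 cells/mL and exposed for 4 days to nine-concentration DMSO serial dilutions in triplicate. Viability was read as ATP luminescence (ATPlite 1step), and IC50 values came from variable-slope non-linear regression.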

[2] = biological target: T1, human BRD4 bromodomain II (Homo sapiens, UniProt O60885); experiment: Bromodomain binding assay (AlphaScreen), BRD4 BDII
T1 construct: human BRD4 bromodomain II [based on Genbank NM_058243, residues 349-460]; host or cells: E. coli
Outline: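 Tagged BRD4 BDI or BDII constructs, expressed in E. coli, competed against a K5/K8/K12/K16-acetylated biotin-H4 peptide. Proximity signal between bead pairs after room-temperature incubations gave concentration-response curves, from which IC50 was derived.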

[3] = SKM-1, 96 h, SKM-1 antiproliferation assay, 4 days, Table C2
[4] = AlphaScreen assay, Table C2, read-out: BRD4 BDII IC50
[5] = SKM-1, SKM-1 antiproliferation assay
[6] = BRD4 BDII AlphaScreen assay, read-out: BRD4 BD2 IC50

Row | SMILES | GI50 [1, 3] [nM] | IC50 [2, 4] [nM] | GI50 [1, 5] [nM] | IC50 [2, 6] [nM]
1 | [2H]C([2H])([2H])n1ccn(-c2ccc(-c3cc(F)cc(-c4ccnc(N5CCC[C@H](NC)C5)c4)c3O)cc2Cl)c1=O [Example 456, (S)-1-(3-chloro-5′-fluoro-2′-hydroxy-3′-(2-(3-(methylamrno)piperidin-1-yl)pyridin-4-yl)-[1,1′-biphenyl]-4-yl)-3-deuteromethyl-1H-imidazol-2(3H)-one] | 0.3 to 30 | 0.01 to 1 | – | –
2 | CC(=O)Nc1ccc(-c2cccc(-c3cc(C(N)=O)nc(N4CCNCC4)c3)c2O)cc1F [Example 273, 4-(4′-acetamido-3′-fluoro-2-hydroxy-[1,1′-biphenyl]-3-yl)-6-(piperazin-1-yl)picolinamide] | 300 to 3000 | 10 to 100 | – | –
3 | COc1ncc(-c2cc(F)cc(-c3ccc(-n4ccn(C)c4=O)c(Cl)c3)c2O)cc1N1CC(O)(CO)C1 [Example 838, 1-(3-chloro-5′-fluoro-2′-hydroxy-3′-(5-(3-hydroxy-3-(hydroxymethyl)azetidin-1-yl)-6-methoxypyridin-3-yl)-[1,1′-biphenyl]-4-yl)-3-methyl-1H-imidazol-2(3H)-one] | 30 to 300 | 0.01 to 1 | – | –
4 | C[C@@H]1CN(c2cc(-c3cc(F)cc(-c4ccc(-n5ccn(C)c5=O)c(Cl)c4)c3O)cc3nccnc23)CCN1 [Example 549, (R)-1-(3-chloro-5′-fluoro-2′-hydroxy-3′-(8-(3-methylpiperazin-1-yl)quinoxalin-6-yl)-[1,1′-biphenyl]-4-yl)-3-methyl-1H-imidazol-2(3H)-one] | 0.3 to 30 | 1 to 10 | – | –
5 | Cn1ccn(-c2ccc(-c3cc(F)cc(-c4cncc(N5CCC(C)(N)C5)c4)c3O)cc2Cl)c1=O (stereo not shown) [Example 745, 1-(3′-(5-(3-amino-3-methylpyrrolidin-1-yl)pyridin-3-yl)-3-chloro-5′-fluoro-2′-hydroxy-[1,1′-biphenyl]-4-yl)-3-methyl-1H-imidazol-2(3H)-one] | 0.3 to 30 | 0.01 to 1 | – | –
6 | CN1CCN(c2c(F)cc(-c3cc(F)cc(-c4ccnc(N5CCNCC5)c4)c3O)cc2F)C1=O [Example 384, 1-methyl-3-(3,5,5′-trifluoro-2′-hydroxy-3′-(2-(piperazin-1-yl)pyridin-4-yl)-[1,1′-biphenyl]-4-yl)imidazolidin-2-one] | 300 to 3000 | 10 to 100 | – | –
7 | Cn1ccn(-c2ccc(-c3cc(Cl)cc(-c4cncc(N5CC[C@H](N)C5)c4)c3O)cc2Cl)c1=O [Example 510, (S)-1-(3′-(5-(3-aminopyrrolidin-1-yl)pyridin-3-yl)-3,5′-dichloro-2′-hydroxy-[1,1′-biphenyl]-4-yl)-3-methyl-1H-imidazol-2(3H)-one] | 30 to 300 | 10 to 100 | – | –
8 | COc1ncc(-c2nc(C)cc(-c3ccc(-n4ccn(C)c4=O)c(Cl)c3)c2O)cc1N1CC2CCC(C1)N2C(C)C [Example 1039, 1-(2-chloro-4-(3-hydroxy-5′-(8-isopropyl-3,8-diazabicyclo[3.2.1]octan-3-yl)-6′-methoxy-6-methyl-[2,3′-bipyridin]-4-yl)phenyl)-3-methyl-1H-imidazol-2(3H)-one] | – | – | 0.3 to 30 | 1 to 10
9 | CN1CCN(c2ccc(-c3cc(F)cc(-c4ccnc(N(C)CCN)c4)c3O)cc2Cl)C1=O [Example 347, 1-(3′-(2-((2-aminoethyl)(methyl)amino)pyridin-4-yl)-3-chloro-5′-fluoro-2′-hydroxy-[1,1′-biphenyl]-4-yl)-3-methylimidazolidin-2-one] | 300 to 3000 | 10 to 100 | – | –
10 | CN1CCN(c2ccc(-c3cc(F)cc(-c4ccnc(C5=CCNCC5)c4)c3O)cc2Cl)C1=O [Example 379, 1-(3-chloro-5′-fluoro-2′-hydroxy-3′-(1′,2′,3′,6′-tetrahydro-[2,4′-bipyridin]-4-yl)-[1,1′-biphenyl]-4-yl)-3-methylimidazolidin-2-one] | 30 to 300 | 1 to 10 | – | –
11 | O=C1NCCCN1c1ccc(-c2cccc(-c3ccnc(N4CCNCC4)c3)c2O)cc1Cl [Example 276, 1-(3-chloro-2′-hydroxy-3′-(2-(piperazin-l-yl)pyridin-4-yl)-[1,1′-biphenyl]-4-yl)tetrahydropyrimidin-2(1H)-one] | 300 to 3000 | 10 to 100 | – | –
12 | C[C@@H]1CN(c2cc(-c3cc(F)cc(-c4ccc(-n5ccn(C)c5=O)c(Cl)c4)c3O)cc3[nH]ncc23)CCN1 [Example 543, (R)-1-(3-chloro-5′-fluoro-2′-hydroxy-3′-(4-(3-methylpiperazin-1-yl)-1H-indazol-6-yl)-[1,1′-biphenyl]-4-yl)-3-methyl-1H-imidazol-2(3H)-one] | 0.3 to 30 | 0.01 to 1 | – | –
13 | COc1cc(-c2cc(F)cc(-c3ccc(-n4ccn(C)c4=O)c(Cl)c3)c2O)cc(N2CCN(C(C)C)CC2)n1 [Example 702, 1-(3-chloro-5′-fluoro-2′-hydroxy-3′-(2-(4-isopropylpiperazin-1-yl)-6-methoxypyridin-4-yl)-[1,1′-biphenyl]-4-yl)-3-methyl-1H-imidazol-2(3H)-one] | 0.3 to 30 | 0.01 to 1 | – | –
14 | O=C1CCCCN1c1ccc(-c2cccc(-c3ccnc(N4CCNCC4)c3)c2O)cc1Cl [Example 282, 1-(3-chloro-2′-hydroxy-3′-(2-(piperazin-1-yl)pyridin-4-yl)-[1,1′-biphenyl]-4-yl)piperidin-2-one] | 300 to 3000 | 10 to 100 | – | –
15 | C[C@@H]1CN(c2cc(-c3cc(F)cc(-c4ccc(-n5ccn(C)c5=O)c(Cl)c4)c3O)ccc2F)CCN1 [Example 677, (R)-1-(3-chloro-4″,5′-difluoro-2′-hydroxy-3″-(3-methylpiperazin-1-yl)-[1,1′:3′,1″-terphenyl]-4-yl)-3-methyl-1H-imidazol-2(3H)-one] | 0.3 to 30 | 0.01 to 1 | – | –
16 | Cn1cc(-c2cc(F)cc(-c3ccc(-n4ccn(C)c4=O)c(Cl)c3)c2O)cc(N2CCC[C@H](N)C2)c1=O [Example 425, (S)-3-(3-aminopiperidin-1-yl)-5-(3′-chloro-5-fluoro-2-hydroxy-4′-(3-methyl-2-oxo-2,3-dihydro-1H-imidazol-1-yl)-[1,1′-biphenyl]-3-yl)-1-methylpyridin-2(1H)-one] | 30 to 300 | 0.01 to 1 | – | –
17 | CN1CCN(c2ccc(-c3cc(F)cc(-c4ncc(N5CCOCC5)cc4N4CCNCC4)c3O)cc2Cl)C1=O [Example 416, 1-(3-chloro-5′-fluoro-2′-hydroxy-3′-(5-morpholino-3-(piperazin-1-yl)pyridin-2-yl)-[1,1′-biphenyl]-4-yl)-3-methylimidazolidin-2-on] | ≥ 3000 | 10 to 100 | – | –
18 | Cn1ccn(-c2ccc(-c3cc(F)cc(-c4ccnc(N5CCCC6(CCN6)C5)c4)c3O)cc2Cl)c1=O (stereo not shown) [Example 688, 1-(3′-(2-(1,6-diazaspiro[3.5]nonan-6-yl)pyridin-4-yl)-3-chloro-5′-fluoro-2′-hydroxy-[1,1′-biphenyl]-4-yl)-3-methyl-1H-imidazol-2(3H)-one] | 0.3 to 30 | 0.01 to 1 | – | –
19 | Cn1ccn(-c2ccc(-c3cc(F)cc(-c4ccnc(N5CCNCC5=O)c4)c3O)cc2Cl)c1=O [Example 463, 1-(4-(3′-chloro-5-fluoro-2-hydroxy-4′-(3-methyl-2-oxo-2,3-dihydro-1H-imidazol-1-yl)-[1,1′-biphenyl]-3-yl)pyridin-2-yl)piperazin-2-one] | 30 to 300 | 0.01 to 1 | – | –
20 | COc1ncc(-c2nc(C)cc(-c3ccc(-n4ccn(C)c4=O)c(Cl)c3)c2O)cc1N1CCN(C(C)(C)C)CC1 [Example 959, 1-(4-(5′-(4-(tert-butyl)piperazin-1-yl)-3-hydroxy-6′-methoxy-6-methyl-[2,3′-bipyridin]-4-yl)-2-chlorophenyl)-3-methyl-1,3-dihydro-2H-imidazol-2-one] | – | – | 0.3 to 30 | 1 to 10
